The results in this text go back to patent US8629168B2, “Benzoxazoles and oxazolopyridines being useful as janus kinases inhibitors” (priority 2006, dated 2014).

The target in experiment [1] is T1, GST-JAK2 (Homo sapiens, UniProt O60674).
T1 construct: the amino acid domain ASP751-VAL1129 of the JAK2 protein
In words: JAK2 kinase assay of the general description (alternative method, flash plate). The note with it: 1.0 μM ATP, read-out: IC50 with test in general description (named “alternative method to that given in the examples”) (“flash plate”). In kind it is biochemical. Here is the method: Baculovirus including the amino acid domain ASP751-VAL1129 of the JAK2 protein is obtainable by ProQinase, Freiburg, Germany. The virus is scaled up as following: Virus containing media is collected from the transfected cell culture and used for infection to increase its titer. Virus containing media obtained after two rounds of infection is used for large-scale protein expression. For large-scale protein expression 100 cm^2 round tissue culture plates are seeded with 5×10^7 cells/plate and infected with 1 mL of virus-containing media (approx. 5 MOIs). After 3 days the cells are scraped off the plate and centrifuged at 500 rpm for 5 min. Cell pellets from 10-20, 100 cm^2 plates, are re-suspended in 50 mL of ice-cold lysis buffer (25 mMTris-HCl, pH7.5, 2 mMEDTA, 1% NP-40, 1 mM DTT, 1 mMP MSF). The cells are stirred on ice for 15 min and then centrifuged at 5000 rpms for 20 min. The protein is purified by loading the centrifuged cell lysate onto a 2 mL glutathione-sepharose column and washed three times with 10 mL of 25 mM Tris-HCl, pH 7.5, 2 mM EDTA, 1 mM DTT, 200 mM NaCl. The GST-tagged proteins are then eluted by 10 applications (1 mL each) of 25 mM Tris-HCl, pH 7.5, 10 mM reduced-glutathione, 100 mM NaCl, 1 mM DTT, 10% Glycerol and stored at −70° C.
Cancer Cell; 5: 231-239]. The test compound is dissolved in DMSO (10 mM) and stored at −20° C. Serial dilutions are freshly made in DMSO and are […] concentrated than test solutions (“pre-dilution plates”). They are further diluted with pure water to yield “master plates” containing 3 times concentrated test solutions in 3% DMSO. The final volume of the assay is 30 μL containing 10 μL of test solution (1% DMSO), 10 μL assay mix including the assay components described by Garcia-Echeverria (2004) and in the following section as well as 10 μL enzyme. The pipetting steps can be programmed to be performed either on the MultiPROBE Iix, MultiPROBE IILx or HamiltonSTAR robots in the 96 well format.
The protein kinase assays are carried as described in details by Garcia-Echeverria (see above). The assay for JAK2 is carried out in 96-well plates at ambient temperature for 10 min (filter-biding method) or 30 min (flash plates) in a finial volume of 30 μL including the following components: 300 ng of GST-JAK2, 20 mM Tris-HCl, pH 7.5, 1.0 mM MnCl2, 10 mM MgCl2, 1 mM DTT, 3 μg/mL poly(Glu, Tyr) 4:1, 1% DMSO and 1.0 μM ATP (γ-[^33P]-ATP 0.1 μCi); The assays are terminated by the addition of 20 μl of 125 mM EDTA. The capturing of the phosphorylated peptides by the filter-binding method is performed as following: 40 μL of the reaction mixture are transferred onto Immobilon-PVDF membranes previously soaked for 5 min with methanol, rinsed with water, then soaked for 5 min with 0.5% H3PO4 and mounted on vacuum manifold with disconnected vacuum source. After spotting all samples, vacuum is connected and each well rinsed with 200 μl 0.5% H3PO4. Free membranes are removed and washed 4× on a shaker with 1.0% H3PO4, once with ethanol. Membranes are counted after drying at ambient temperature, mounting in Packard TopCount 96-well frame, and addition of 10 μl/well of Microscint. The plates are eventually sealed and counted in a microplate scintillation counter (TopCount NXT, TopCount NXT HTS, PerkinElmer, Brussels, Belgium).
The assays for the flash plate method is carried out in a total volume of 30 μL at RT in conventional 96-well flash plates. The reaction is stopped after 30 min by the addition of 20 μL of 125 mM EDTA The assay plates are then washed three times with PBS and dried at room temperature. The plates are sealed and counted in a microplate scintillation counter (TopCount NXT, TopCount NXT HTS). IC50 values are calculated by linear regression analysis of the percentage inhibition of the compound either in duplicate, at four concentrations (usually 0.01, 0.1, 1 and 10 μM) or as 8 single point IC50 starting at 10 μM following by 1:3 dilutions.

The target in experiment [2] is T2, GST-JAK2(808-1132) (Homo sapiens, UniProt O60674).
T2 construct: GST-JAK2(808-1132) is purchased from Invitrogen; purchased Invitrogen (Carlsbad, USA) #4288
As to the kind of experiment: EPK JAK/TYK-kinase family profiling assay (Caliper mobility shift), JAK2. In kind it is biochemical. As to conditions: Caliper mobility shift assay of Example 187, 20 μM ATP, read-out: IC50 with Test in present Example. Summed up: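 Caliper mobility-shift assay with the GST-tagged kinase domain and a fluorescently labeled peptide substrate plus ATP, run 60 min at 30° C and then stopped with EDTA buffer. Turnover was taken as the substrate/product ratio. Compounds were tested at eight final concentrations from 10 to 0.003 μM.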

T1 sequence (O60674 751-1129): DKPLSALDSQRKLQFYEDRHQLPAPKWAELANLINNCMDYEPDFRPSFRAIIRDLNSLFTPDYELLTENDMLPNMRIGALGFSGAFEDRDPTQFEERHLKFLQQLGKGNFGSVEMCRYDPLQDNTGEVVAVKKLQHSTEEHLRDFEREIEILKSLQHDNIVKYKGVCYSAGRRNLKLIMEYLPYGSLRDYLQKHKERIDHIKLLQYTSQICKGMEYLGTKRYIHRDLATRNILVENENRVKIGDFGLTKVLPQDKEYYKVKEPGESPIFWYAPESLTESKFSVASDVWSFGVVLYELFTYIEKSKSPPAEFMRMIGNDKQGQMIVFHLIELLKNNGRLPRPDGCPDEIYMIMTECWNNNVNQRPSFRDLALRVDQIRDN
T2 sequence (O60674 808-1132): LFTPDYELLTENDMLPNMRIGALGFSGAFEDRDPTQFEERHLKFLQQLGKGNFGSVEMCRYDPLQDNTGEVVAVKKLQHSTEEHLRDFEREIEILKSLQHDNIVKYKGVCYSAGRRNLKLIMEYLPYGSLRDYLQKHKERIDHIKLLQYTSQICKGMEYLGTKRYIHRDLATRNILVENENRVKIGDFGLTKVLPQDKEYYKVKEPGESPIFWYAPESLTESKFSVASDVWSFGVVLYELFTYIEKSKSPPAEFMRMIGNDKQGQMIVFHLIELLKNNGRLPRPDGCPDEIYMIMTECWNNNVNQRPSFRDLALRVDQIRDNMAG

As for `COc1cc(Nc2nc3cccc(-c4cccc(O)c4)c3o2)cc(OC)c1OC` [Example 6, [7-(3-Hydroxy-phenyl)-benzooxazol-2-yl]-(3,4,5-trimethoxy-phenyl)-amine], in experiment [1], the IC50 (usually the midpoint of a concentration-inhibition curve) was found to be 178 nM.

Turning to `COc1ccc(-c2cccc3nc(Nc4cc(OC)c(OC)c(OC)c4)oc23)cc1[N+](=O)[O-]` [Example 51, [7-(4-Methoxy-3-nitro-phenyl)-benzooxazol-2-yl]-(3,4,5-trimethoxy-phenyl)-amine], the IC50 in experiment [1] amounted to 450 nM.

Take `COc1ccc(-c2cccc3nc(Nc4cc(OC)c(OC)c(OC)c4)oc23)cc1N` [Example 53, [7-(3-Amino-4-methoxy-phenyl)-benzooxazol-2-yl]-(3,4,5-trimethoxy-phenyl)-amine]: the IC50 in experiment [1] was determined as 557 nM.

Take `CN(C)CCNC(=O)c1ccc(Nc2nc3cccc(-c4ccc(S(N)(=O)=O)cc4)c3o2)cc1` [Example 57, N-(2-Dimethylamino-ethyl)-4-[7-(4-sulfamoyl-phenyl)-benzooxazol-2-ylamino]-benzamide]: the IC50 was found to be 150 nM in experiment [1] and 37 nM in experiment [2].

`COc1cc(Nc2nc3cccc(-c4ccc(CN)cc4)c3o2)cc(OC)c1OC` [Example 29, [7-(4-Aminomethyl-phenyl)-benzooxazol-2-yl]-(3,4,5-trimethoxy-phenyl)-amine]: the IC50 worked out at 250 nM in experiment [1] and 66 nM in experiment [2].

For `COc1cc(Nc2nc3cccc(-c4ccc(Cl)c(N)c4)c3o2)cc(OC)c1OC` [Example 52, [7-(3-Amino-4-chloro-phenyl)-benzooxazol-2-yl]-(3,4,5-trimethoxy-phenyl)-amine], the IC50 in experiment [1] came out at 150 nM.

For the compound `COc1cc(Nc2nc3ccnc(-c4ccc(N)cc4)c3o2)cc(OC)c1OC` [Example 36, [4-(4-Amino-phenyl)-oxazolo[5,4-c]pyridin-2-yl]-(3,4,5-trimethoxy-phenyl)-amine], the IC50 in experiment [1] was determined as 120 nM.

`COc1cc(Nc2nc3cccc(-c4cccc([N+](=O)[O-])c4)c3o2)cc(OC)c1OC` [Example 48, [7-(3-Nitro-phenyl)-benzooxazol-2-yl]-(3,4,5-trimethoxy-phenyl)-amine]: the IC50 in experiment [1] was determined as 700 nM.

With `COc1cc(Nc2nc3cccc(-c4ccc5[nH]cnc5c4)c3o2)cc(OC)c1OC` [Example 35, [7-(1H-Benzoimidazol-5-yl)-benzooxazol-2-yl]-(3,4,5-trimethoxy-phenyl)-amine], the IC50 in experiment [1] worked out at 120 nM.

`CNS(=O)(=O)c1cccc(-c2cccc3nc(Nc4cc(OC)c(OC)c(OC)c4)oc23)c1` [Example 50, N-Methyl-3-[2-(3,4,5-trimethoxy-phenylamino)-benzooxazol-7-yl]-benzene-sulfonamide]: the IC50 in experiment [1] stood at 610 nM.

Take `COc1cc(Nc2nc3cccc(-c4ccc(C(=O)N5CCOCC5)cc4)c3o2)cc(OC)c1OC` [Example 141, Morpholin-4-yl-{4-[2-(3,4,5-trimethoxy-phenylamino)-benzooxazol-7-yl]-phenyl}-methanone]: the IC50 in experiment [1] came out at 220 nM; in experiment [2], 8.1 nM.

Take `COc1cc(Nc2nc3cccc(-c4cccc(NS(C)(=O)=O)c4)c3o2)cc(OC)c1OC` [Example 55, N-{3-[2-(3,4,5-Trimethoxy-phenylamino)-benzooxazol-7-yl]-phenyl}-methanesulfonamide]: in experiment [1], the half-maximal inhibitory concentration (IC50) amounted to 420 nM.

Regarding `Nc1cccc(-c2cccc3nc(Nc4ccc(N5CCOCC5)cc4)oc23)c1` [Example 43, [7-(3-Amino-phenyl)-benzooxazol-2-yl]-(4-morpholin-4-yl-phenyl)-amine], the IC50 in experiment [1] came out at 1900 nM.

Regarding `COc1cc(Nc2nc3cccc(-c4cccc(C(N)=O)c4)c3o2)cc(OC)c1OC` [Example 47, 3-[2-(3,4,5-Trimethoxy-phenylamino)-benzooxazol-7-yl]-benzamide], the IC50 in experiment [1] was 593 nM.

As for `CNC(=O)c1cc(-c2cccc3nc(Nc4cc(OC)c(OC)c(OC)c4)oc23)cs1` [Example 34, 4-[2-(3,4,5-Trimethoxy-phenylamino)-benzooxazol-7-yl]-thiophene-2-carboxylic acid methylamide], in experiment [1], the IC50 was found to be 540 nM.

`COCCNC(=O)c1ccc(Nc2nc3cccc(-c4ccc(S(N)(=O)=O)cc4)c3o2)cc1` [Example 56, N-(2-Methoxy-ethyl)-4-[7-(4-sulfamoyl-phenyl)-benzooxazol-2-ylamino]-benzamide]: the IC50 in experiment [1] turned out to be 110 nM; in experiment [2] it was 51 nM.

`COc1cc(Nc2nc3cccc(-c4ccc(NC(C)=O)cc4)c3o2)cc(OC)c1OC` [Example 27, N-{4-[2-(3,4,5-Trimethoxy-phenylamino)-benzooxazol-7-yl]-phenyl}-acetamide]: in experiment [1], the IC50 came out at 200 nM.

Regarding `COc1cc(Nc2nc3cccc(-c4ccc(NS(C)(=O)=O)cc4)c3o2)cc(OC)c1OC` [Example 26, N-{4-[2-(3,4,5-Trimethoxy-phenylamino)-benzooxazol-7-yl]-phenyl}-methanesulfonamide], the IC50 in experiment [1] was 52 nM.

With `COc1cc(Nc2nc3cccc(-c4ccccc4C)c3o2)cc(OC)c1OC` [Example 44, (7-o-Tolyl-benzooxazol-2-yl)-(3,4,5-trimethoxy-phenyl)-amine], the IC50 in experiment [1] was 930 nM.

As for `COc1cc(Nc2nc3cccc(-c4cccc(S(C)(=O)=O)c4)c3o2)cc(OC)c1OC` [Example 49, [7-(3-Methanesulfonyl-phenyl)-benzooxazol-2-yl]-(3,4,5-trimethoxy-phenyl)-amine], the half-inhibitory concentration (IC50) in experiment [1] worked out at 520 nM.

Consider `COc1cc(Nc2nc3cccc(-c4ccc(N(C)C)cc4)c3o2)cc(OC)c1OC` [Example 54, [7-(4-Dimethylamino-phenyl)-benzooxazol-2-yl]-(3,4,5-trimethoxy-phenyl)-amine], for which the IC50 in experiment [1] was 350 nM.

For `COc1cc(Nc2nc3cccc(-c4ccccn4)c3o2)cc(OC)c1OC` [Example 46, (7-Pyridin-2-yl-benzooxazol-2-yl)-(3,4,5-trimethoxy-phenyl)-amine], the IC50 in experiment [1] was determined as 350 nM.

In the case of `CNS(=O)(=O)c1ccc(-c2cccc3nc(Nc4ccc(OC)c(OC)c4)oc23)cc1` [Example 59, 4-[2-(3,4-Dimethoxy-phenylamino)-benzooxazol-7-yl]-N-methyl-benzenesulfonamide], in experiment [1], the 50% inhibitory concentration (IC50) was 41 nM.

For `COc1cc(Nc2nc3cccc(-c4cccc(C#N)c4)c3o2)cc(OC)c1OC` [Example 45, 3-[2-(3,4,5-Trimethoxy-phenylamino)-benzooxazol-7-yl]-benzonitrile], the IC50 in experiment [1] worked out at 950 nM.

Consider `CNC(=O)Cc1ccc(-c2cccc3nc(Nc4cc(OC)c(OC)c(OC)c4)oc23)cc1` [Example 61, N-Methyl-2-{4-[2-(3,4,5-trimethoxy-phenylamino)-benzooxazol-7-yl]-phenyl}-acetamide], for which, in experiment [1], the IC50 was 87 nM.

Take `COc1cc(Nc2nc3cccc(-c4ccccc4N)c3o2)cc(OC)c1OC` [Example 14, [7-(2-Amino-phenyl)-benzooxazol-2-yl]-(3,4,5-trimethoxy-phenyl)-amine]: in experiment [1], the IC50 came out at 610 nM.
